Test results from US20240041769A1, “COMPOSITIONS AND METHODS FOR DELIVERY OF ANTICANCER AGENTS WITH IMPROVED THERAPEUTIC INDEX” (NanoTech Pharma Inc., priority 2020, published 2024).

Experiments:
[1] = In-vivo pharmacokinetic study, intravenous; set-up: species or system BALB/c nude mice; conditions: mice, free drug solutions
Protocol: In-vivo pharmacokinetic study of free afatinib and nintedanib combination (data not shown), and AFA/NIN-L (1:5 AFA:NIN molar ratio) were carried out in BALB/c nude mice. The preparation of the PEGylated AFA/NIN-L with TEA-SOS used as the trapping agent was described in the Experimental Method section. The mixture of afatinib and nintedanib free drug cocktail and PEGylated AFA/NIN-L with a molar ratio of 1:5 were administered intravenously via the tail vein into the mice and the plasma concentration of both AFA and NIN was monitored over time. Doses of the all drug formulations were 7.0 mg/kg of afatinib free base (10.3 mg/kg afatinib dimaleate) and 38.9 mg/kg of nintedanib free base (46.8 mg/kg nintedanib […]). After intravenous administration, blood was collected at multiple time points by cardiac puncture (3 mice per time point) and placed into EDTA coated micro containers. The samples were centrifuged to separate plasma, and plasma was transferred to another tube. Then, AFA and NIN plasma levels were quantified with LC-MS. PK parameters were then calculated from measured AFA and NIN plasma levels.

[2] = clinical studies, oral afatinib; cited from earlier work

| elimination after IV administration [1] | SMILES | treatment-related grade ≥3 AE: diarrhea [2] | treatment-related grade ≥3 AE: rash/acne [2] | treatment-related grade ≥3 AE: stomatitis/mucositis [2] |
| --- | --- | --- | --- | --- |
| rapidly eliminated | CN(C)C/C=C/C(=O)Nc1cc2c(Nc3ccc(F)c(Cl)c3)ncnc2cc1O[C@H]1CCOC1 [AFA, Afatinib] | 5.4-14.4% | 9.7-16.2% | 5.4-8.7% |
| rapidly eliminated | COC(=O)c1ccc2c(c1)NC(=O)/C2=C(\Nc1ccc(N(C)C(=O)CN2CCN(C)CC2)cc1)c1ccccc1 [NIN, Nintedanib] | – | – | – |
